Results from the Kinase Knowledgebase extract (Sharma et al. 2016).

Target: PIK3CA (human) (UniProt P42336)
Test: Assessment of PIK3CA Kinase Activity

PIK3CA (human), sequence (P42336 whole entry, looked up): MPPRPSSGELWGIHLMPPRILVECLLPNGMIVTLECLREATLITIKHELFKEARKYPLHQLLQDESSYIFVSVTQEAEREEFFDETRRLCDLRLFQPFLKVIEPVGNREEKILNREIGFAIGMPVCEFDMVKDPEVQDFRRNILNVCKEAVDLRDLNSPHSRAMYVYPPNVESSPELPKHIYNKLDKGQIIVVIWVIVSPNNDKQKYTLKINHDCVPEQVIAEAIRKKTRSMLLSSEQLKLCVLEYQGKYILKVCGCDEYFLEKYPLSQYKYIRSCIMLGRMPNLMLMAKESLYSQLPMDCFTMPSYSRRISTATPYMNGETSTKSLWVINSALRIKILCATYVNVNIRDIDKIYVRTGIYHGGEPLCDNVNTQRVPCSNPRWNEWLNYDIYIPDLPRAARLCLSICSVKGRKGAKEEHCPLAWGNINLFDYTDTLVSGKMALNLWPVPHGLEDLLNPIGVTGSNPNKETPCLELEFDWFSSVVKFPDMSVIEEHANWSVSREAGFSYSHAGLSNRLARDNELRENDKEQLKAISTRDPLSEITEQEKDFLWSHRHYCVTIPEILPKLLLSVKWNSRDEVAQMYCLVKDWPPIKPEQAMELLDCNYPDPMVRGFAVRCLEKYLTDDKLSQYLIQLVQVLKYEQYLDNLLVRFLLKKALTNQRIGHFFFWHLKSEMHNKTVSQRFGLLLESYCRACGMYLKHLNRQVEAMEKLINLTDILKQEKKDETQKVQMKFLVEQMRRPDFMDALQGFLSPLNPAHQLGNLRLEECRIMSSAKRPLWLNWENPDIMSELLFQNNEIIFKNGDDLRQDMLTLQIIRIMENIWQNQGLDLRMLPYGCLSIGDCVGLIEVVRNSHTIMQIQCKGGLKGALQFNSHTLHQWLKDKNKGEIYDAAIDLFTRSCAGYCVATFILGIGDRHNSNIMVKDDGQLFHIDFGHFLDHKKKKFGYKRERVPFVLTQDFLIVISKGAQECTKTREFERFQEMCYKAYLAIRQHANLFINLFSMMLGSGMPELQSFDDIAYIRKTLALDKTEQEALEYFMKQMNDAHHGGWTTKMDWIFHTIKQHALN

**Q.** For `COc1ccc(Nc2ncc(CN3CCC(S(C)(=O)=O)C3)cc2-c2nc(C)nc(N)n2)cn1` (stereo unspecified), which Ki is on record?
**A.** 16 nM

**Q.** For `COc1ncc(Nc2ncc(CN3CCN(C(=O)N(C)CC(F)(F)F)CC3)cc2-c2nc(C)nc(N)n2)cc1F`, which Ki is on record?
**A.** 24 nM

**Q.** `COc1cccc(Nc2cnc(Nc3ccc(OC)nc3)c(-c3nc(C)nc4[nH]cnc34)c2)c1` was tested. Which Ki did it give?
**A.** 35 nM

**Q.** Which Ki does the source give for `COc1cnc(Nc2cnc(Cl)c(NS(=O)(=O)N(C)C)c2)c(-c2nc(C)nc(N)n2)c1` here?
**A.** 14 nM

**Q.** Which Ki does the source give for `COc1ccc(Nc2ncc(CN3CC[C@@H](CO)C3)cc2-c2nc(C)nc(N)n2)cn1` here?
**A.** 278 nM

**Q.** How did the Ki turn out when `COc1ccc(Nc2ncc([C@H](O)C(C)(C)C)cc2-c2nc(C)nc3[nH]cnc23)cn1` was run?
**A.** 31 nM

**Q.** Which Ki does the source give for `COc1ccc(Nc2ncc(C3=CCOCC3)cc2-c2nc(C)nc(N)n2)cn1` here?
**A.** 5 nM

**Q.** How did the Ki turn out when `COc1ccc(Nc2ncc(CC3CCN(S(C)(=O)=O)CC3)cc2-c2nc(C)nc(N)n2)cn1` was run?
**A.** 9 nM

**Q.** With `Cc1nc(N)nc(-c2cc([C@@H](C)N3CCOCC3)cnc2Nc2cnc(Cl)c(NS(C)(=O)=O)c2)n1` as the molecule, how does the Ki read?
**A.** 7 nM

**Q.** Which Ki does the source give for `COc1ccc(Nc2ncc(Br)cc2-c2nc(C)nc(N)n2)cn1` here?
**A.** 247 nM

**Q.** With `COc1ccc(Nc2ncc(CN3CCNCC3)cc2-c2nc(C)nc(N)n2)cn1` as the molecule, how does the Ki read?
**A.** 61 nM

**Q.** Which Ki does the source give for `COc1ccc(Nc2ncc(CN3CCCC3)cc2-c2nc(C)nc(N)n2)cn1` here?
**A.** 266 nM

**Q.** `COCCOc1cnc(Nc2cnc(Cl)c(NS(C)(=O)=O)c2)c(-c2nc(C)nc(N)n2)c1` was tested. Which Ki did it give?
**A.** 5 nM

**Q.** `COc1ncc(Nc2ncc([C@H](C)CO)cc2-c2nc(C)nc(N)n2)cc1F` was tested. Which Ki did it give?
**A.** 7 nM

**Q.** How did the Ki turn out when `COc1cnc(Nc2ccc(OC)nc2)c(-c2nc(C)nc(N)n2)c1` was run?
**A.** 55 nM

**Q.** With `COc1ccc(Nc2ncc(CN3CCC(O)CC3)cc2-c2nc(C)nc(N)n2)cn1` as the molecule, how does the Ki read?
**A.** 199 nM

**Q.** With `COc1ccc(Nc2ncc(CN3CCOCC3)cc2-c2nc(C)nc(N)n2)cn1` as the molecule, how does the Ki read?
**A.** 104 nM

**Q.** With `COc1ccc(Nc2ncc(C)cc2-c2nc(C)nc(N)n2)cn1` as the molecule, how does the Ki read?
**A.** 242 nM

**Q.** `COc1ccc(Nc2ncc(CN3CCN(S(=O)(=O)N(C)C)CC3)cc2-c2nc(C)nc(N)n2)cn1` was tested. Which Ki did it give?
**A.** 17 nM

**Q.** For `COc1ccc(Nc2ncc(CN3CCC(S(C)(=O)=O)CC3)cc2-c2nc(C)nc(N)n2)cn1`, which Ki is on record?
**A.** 22 nM

**Q.** Which Ki does the source give for `COc1ccc(Nc2ncc(CN3CCN(C)CC3)cc2-c2nc(C)nc(N)n2)cn1` here?
**A.** 258 nM

**Q.** With `COc1ncc(Nc2ncc([C@@H](C)CO)cc2-c2nc(C)nc(N)n2)cc1F` as the molecule, how does the Ki read?
**A.** 9 nM

**Q.** `COc1ncc(Nc2ncc(CN3CCN(C(=O)N(C)C4CC4)CC3)cc2-c2nc(C)nc(N)n2)cc1F` was tested. Which Ki did it give?
**A.** 45 nM

**Q.** Which Ki does the source give for `Cc1nc(N)nc(-c2cc(Cl)cnc2Nc2cnc(Cl)c(NS(=O)(=O)N(C)C)c2)n1` here?
**A.** 2 nM

**Q.** `Cc1nc(N)nc(-c2cccnc2Nc2cccc3[nH]ncc23)n1` was tested. Which Ki did it give?
**A.** 33 nM

**Q.** `COc1ccc(Nc2ncc([C@@H](O)C(C)(C)C)cc2-c2nc(C)nc3[nH]cnc23)cn1` was tested. Which Ki did it give?
**A.** 12 nM

**Q.** With `COc1ccc(Nc2ncc(Cl)cc2-c2nc(C)nc(N)n2)cn1` as the molecule, how does the Ki read?
**A.** 70 nM

**Q.** `COc1ccc(Nc2ncccc2-c2nc(C)nc(N)n2)cn1` was tested. Which Ki did it give?
**A.** 107 nM

**Q.** For `COCCNCc1cnc(Nc2ccc(OC)nc2)c(-c2nc(C)nc(N)n2)c1`, which Ki is on record?
**A.** 283 nM

**Q.** With `COc1ccc(Nc2ncc(-c3cnn(C)c3)cc2-c2nc(C)nc(N)n2)cn1` as the molecule, how does the Ki read?
**A.** 8 nM

**Q.** How did the Ki turn out when `COc1ccc(Nc2ncc(CN3CCCCC3)cc2-c2nc(C)nc(N)n2)cn1` was run?
**A.** 153 nM

**Q.** Which Ki does the source give for `COc1ccc(Nc2ncc(Cc3ccccc3)cc2-c2nc(C)nc(N)n2)cn1` here?
**A.** 65 nM

**Q.** How did the Ki turn out when `COc1ccc(Nc2ncccc2-c2ncnc3[nH]cnc23)cn1` was run?
**A.** 7280 nM

**Q.** `COc1ccc(Nc2ncc(CO)cc2-c2nc(C)nc(N)n2)cn1` was tested. Which Ki did it give?
**A.** 63 nM

**Q.** For `COc1ccc(Nc2ncc(C(O)C(F)(F)F)cc2-c2nc(C)nc(N)n2)cn1` (stereo unspecified), which Ki is on record?
**A.** 33 nM

**Q.** `COc1ccc(Nc2ncc(CN3CCC3)cc2-c2nc(C)nc(N)n2)cn1` was tested. Which Ki did it give?
**A.** 160 nM
